{"source": "paper PMC7221793", "about": "“Metabolism and Pharmacokinetics of SP-8356, a Novel (1S)-(−)-Verbenone Derivative, in Rats and Dogs and Its Implications in Humans” (Molecules, 2020)", "key": {"[1]": {"tested_on": "mouse xenograft model of triple-negative breast cancer", "parameters": "method as in PMID 31036845", "conditions": "in mice ref 10; cited from earlier work"}, "[2]": {"assay": "Pharmacokinetic studies in dogs (single i.v. and p.o. dose)", "type": "in vivo", "conditions": "male, Beagle, dog, plasma, iv, 50 mg/kg", "description": "Separation was performed on a Phenomenex Kinetex C18 column (2.1 mm × 50 mm, 2.6 µm) with 0.1 vol.% formic acid in water (A) and 0.1 vol.% formic acid in acetonitrile (B) as the mobile phase. The samples were analyzed in a linear gradient elution at a flow rate of 0.45 mL/min at 40 °C: starting with 5 vol.% B for 2 min, ramping to 95 vol.% B in 1 min, maintaining for 3 min and then returning to the initial condition. The injection volume was 5 µL. Ion source parameters were optimized as follows: capillary voltage, 3500 V; drying gas, 12 L/min and 345 °C; nebulizer gas, 35 psi; sheath gas, 11 L/min and 400 °C. Mass spectra were acquired in negative multiple reaction monitoring (MRM) mode at m/z (299 > 283) (F, 100 V; CE, 25 eV) and (253 > 143) (F, 100 V; CE, 30 eV) for SP-8356 and HSDH, respectively. The data were analyzed using Agilent MassHunter Quantitative Analysis software (version B.05.00). The retention times of SP-8356 and HSDH were (4.10 and 4.17) min, respectively. The linear calibration range of SP-8356 was (31.25–4000) ng/mL (r^2 > 0.99). The precision and accuracy of the assay were evaluated using quality control samples prepared in triplicate at (30, 300 and 3000) ng/mL as described in previous report. Both the accuracy and precision of this analytical method were within the acceptable ranges. Pharmacokinetic parameters were calculated by noncompartmental analysis using PKSolver.\nAnimal studies were conducted at KNOTUS Co., Ltd. (IACUC Approval No.: KNOTUS IACUC 18-KE-363; Approval date: 24 October 2018). SP-8356 dissolved in DMSO/ethanol/Solutol HS 15/deionized water (5/3/40/52 vol.%) was dosed i.v. or p.o. at 50 mg/kg (n = 6/dose group) to male Beagle dogs (11 months old; (11.6–12.4) kg; OrientBio Inc., Gyeonggi, Republic of Korea). Blood samples were collected at selected time points for 24 h post-dosing through jugular vein cannula into EDTA-treated tubes containing AA (final concentration: 0.4 w/v%). The blood samples were then centrifuged at 3000 rpm at 4 °C for 20 min. The separated plasma samples were kept frozen at −80 °C, until analysis. Sample and data analysis methods were the same as those described in Section 4.2."}, "[3]": {"assay": "Metabolic stability in dog liver S9 fraction", "type": "in vitro ADME", "description": "(§1) The metabolic stability of SP-8356 was investigated using rat, dog and human liver S9 fractions fortified with cofactors for major drug metabolism. The final reaction mixture contained 1 mg/mL rat, dog or human liver S9 fraction, 1 mM cofactors (NADPH, UDPGA, PAPS, SAM and GSH), 2 mM MgCl2, 25 µg/mL alamethicin and 1 µM SP-8356 in final volume of 200 µL. The metabolic reactions were initiated by adding 10 mM cofactor solution to reaction mixtures preincubated for 5 min at 37 °C. The reactions were terminated at (0, 5, 15, 30 and 60) min by the addition of 200 µL ice-cold acetonitrile containing HSDH (1 µg/mL). The subsequent sample preparation and analytical methods were the same as those described in Section 4.5.\n(§2) The degradation t1/2 of SP-8356 was calculated using the following Equation:(1) t1/2=0.693/k, where, k was the first-order rate constant calculated by one phase decay nonlinear regression using GraphPad Prism™ 7 (GraphPad Software, La Jolla, CA, USA). CLint was calculated using the following Equation:(2) CLint=k/fu,S9· mL incubation/mg liver S9· mg S9/g liver·g liver/kg body wt.\n(§3) The scaling factors were (136, 120.7 and 120.7) mg S9 protein/g liver and (40, 32 and 26) g liver/kg body weight for rats, dogs and humans, respectively. For simplicity, the fraction unbound in S9 incubation (fu, S9) was assumed to be one. CLH was predicted using the hepatic well-stirred model, as follows:(3) CLH=QH·fu·CLint/QH+fu·CLint, where, QH was the hepatic blood flow of (55, 30 and 20) mL/min/kg for rats, dogs and humans, respectively. The fraction unbound (fu) was assumed to be one. EH was calculated using the following Equation:(4) EH=CLH/QH."}, "[4]": {"assay": "Metabolic stability in rat liver S9 fraction", "type": "in vitro ADME", "description": "as §1, §2, §3"}, "[5]": {"assay": "Pharmacokinetic studies in rats (single i.v. and p.o. dose)", "type": "in vivo", "conditions": "plasma"}}, "data": [{"smiles": "COc1cc(/C=C/C2=CC(=O)[C@H]3C[C@@H]2C3(C)C)cc(O)c1O", "note": "[SP-8356, (1S,5R)-4-((E)-3,4-dihydroxy-5-methoxystryryl)-6,6-dimethylbicylco[3.1.1]hept-3-en-2-one]", "values": [{"measurement": "anti-breast cancer activity", "setting": "[1]", "value": "potent anti-breast cancer effect"}, {"measurement": "Vd", "setting": "[2]; read-out: Vss", "value": "1.3 ± 0.3", "unit": "L/kg"}, {"measurement": "Vd", "setting": "[2]; read-out: Vz", "value": "1.8 ± 0.3", "unit": "L/kg"}, {"measurement": "AUC(0-inf)", "setting": "[2]", "value": 12400, "unit": "ng·h/mL"}, {"measurement": "AUC(0-t)", "setting": "[2]", "value": 12400, "unit": "ng·h/mL"}, {"measurement": "clearance", "setting": "[2]", "value": 66.7, "unit": "mL/min/kg"}, {"measurement": "half-life at 1 µM", "setting": "[3]; Beagle, dog, liver S9 fraction, dog liver S9, −Cofactors, 1 μM", "value": "< 30", "unit": "min"}, {"measurement": "CLint scaled at 1 µM", "setting": "[3]; Beagle, liver S9 fraction, dog liver S9, +Cofactors", "value": 2430, "unit": "mL/min/kg"}, {"measurement": "t1/2", "setting": "[3]; dog liver S9, −Cofactors, 1 μM", "value": 20.7, "unit": "min"}, {"measurement": "CLH", "setting": "[3]; dog, +Cofactors, predicted by well-stirred model", "value": 29.6, "unit": "mL/min/kg"}, {"measurement": "CLint scaled at 1 µM", "setting": "[4]; Sprague-Dawley, liver S9 fraction, rat liver S9, +Cofactors", "value": 2900, "unit": "mL/min/kg"}, {"measurement": "EH", "setting": "[4]; rat, +Cofactors, EH = CLH/QH", "value": 0.98}, {"measurement": "CLH", "setting": "[4]; rat, +Cofactors, predicted by well-stirred model", "value": 54.0, "unit": "mL/min/kg"}, {"measurement": "Vd", "setting": "[5]; male, SD (rat), Beagle (dog), iv, range over rats and dogs, read-out: mean volumes of distribution during terminal phase (Vz) and at steady state (Vss)", "value": "1.3 to 1.9", "unit": "L/kg"}, {"measurement": "AUC(0-inf)", "setting": "[5]; male, SD, iv, rat, 20 mg/kg", "value": "1030 ± 314", "unit": "ng·h/mL"}, {"measurement": "AUC(0-t)", "setting": "[5]; male, SD, iv, rat, 20 mg/kg", "value": "981 ± 314", "unit": "ng·h/mL"}, {"measurement": "clearance", "setting": "[5]; male, SD, iv, rat, 20 mg/kg", "value": 350, "unit": "mL/min/kg"}, {"measurement": "half-life", "setting": "[5]; male, SD, rat, iv, 20 mg/kg", "value": "< 6", "unit": "min"}, {"measurement": "Vd", "setting": "[5]; male, SD, rat, iv, 20 mg/kg, read-out: Vss", "value": "1.6 ± 0.5", "unit": "L/kg"}, {"measurement": "Vd", "setting": "[5]; male, SD, rat, iv, 20 mg/kg, read-out: Vz", "value": "1.9 ± 0.6", "unit": "L/kg"}, {"measurement": "t1/2", "setting": "[5]; rat, 20 mg/kg", "value": "4.2 ± 1.2", "unit": "min"}]}]}
